Source: US8148391B2 (Cephalon, Inc., priority 2006, dated 2012)
Read-outs that look alike come from different tables or passages of the source. Each block holds one compound with its values, some of them ahead of it.

Tests used:
[1] = biological target: T1, c-Met (cytoplasmic domain) (Homo sapiens, UniProt P08581); assay: c-Met Kinase Assay (same methods as for ALK, with modifications); type: biochemical
T1 construct: 10 ng/mL c-Met (cytoplasmic domain, Invitrogen Corporation #PV3143); purchased Invitrogen Corporation PV3143
Procedure, shortened: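 Europium-labeled PT66 antibody (Eu-N1) detects substrate phosphorylation on wells coated with phospholipase C-γ at 10 μg/mL. The kinase, the cytoplasmic domain of c-Met at 10 ng/mL, starts the reaction, which proceeds 15 minutes at 37° C.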

[2] = biological target: T2, baculovirus-expressed ALK (Homo sapiens, UniProt Q9UM73); assay: ALK Kinase Assay (ELISA-type, time-resolved fluorescence); type: biochemical
T2 construct: host or cells: baculovirus expression system
Procedure, shortened: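 Plates coated with phospholipase C-γ substrate (10 μg/mL in TBS); reaction started with 30 ng/ml ALK and run 15 min at 37° C. Phosphorylated substrate detected with Eu-N1-labeled PT66 antibody. IC50 from sigmoidal variable-slope fit of percent inhibition vs log concentration.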

[3] = 1 μM ATP (Km level), read-out: cMet Activity (c-Met Kinase Inhibition, IC50)
[4] = 1 μM ATP (Km level), read-out: ALK Activity (ALK Kinase Inhibition, IC50)
[5] = c-Met kinase inhibition, 1 μM ATP, read-out: cMet Activity
[6] = ALK kinase inhibition, 1 μM ATP, read-out: ALK Activity
[7] = 1 μM ATP (Km level), 10 ng/mL c-Met, read-out: cMet Activity (c-Met kinase inhibition, IC50 class)
[8] = 1 μM ATP (Km level), 30 ng/ml ALK, 37° C., 15 minutes, read-out: ALK Activity (ALK kinase inhibition, IC50 class)
[9] = c-Met kinase inhibition, 1 μM ATP (Km level), read-out: cMet Activity
[10] = ALK kinase inhibition, 1 μM ATP (Km level), read-out: ALK Activity

T2 sequence (Q9UM73 19-1620): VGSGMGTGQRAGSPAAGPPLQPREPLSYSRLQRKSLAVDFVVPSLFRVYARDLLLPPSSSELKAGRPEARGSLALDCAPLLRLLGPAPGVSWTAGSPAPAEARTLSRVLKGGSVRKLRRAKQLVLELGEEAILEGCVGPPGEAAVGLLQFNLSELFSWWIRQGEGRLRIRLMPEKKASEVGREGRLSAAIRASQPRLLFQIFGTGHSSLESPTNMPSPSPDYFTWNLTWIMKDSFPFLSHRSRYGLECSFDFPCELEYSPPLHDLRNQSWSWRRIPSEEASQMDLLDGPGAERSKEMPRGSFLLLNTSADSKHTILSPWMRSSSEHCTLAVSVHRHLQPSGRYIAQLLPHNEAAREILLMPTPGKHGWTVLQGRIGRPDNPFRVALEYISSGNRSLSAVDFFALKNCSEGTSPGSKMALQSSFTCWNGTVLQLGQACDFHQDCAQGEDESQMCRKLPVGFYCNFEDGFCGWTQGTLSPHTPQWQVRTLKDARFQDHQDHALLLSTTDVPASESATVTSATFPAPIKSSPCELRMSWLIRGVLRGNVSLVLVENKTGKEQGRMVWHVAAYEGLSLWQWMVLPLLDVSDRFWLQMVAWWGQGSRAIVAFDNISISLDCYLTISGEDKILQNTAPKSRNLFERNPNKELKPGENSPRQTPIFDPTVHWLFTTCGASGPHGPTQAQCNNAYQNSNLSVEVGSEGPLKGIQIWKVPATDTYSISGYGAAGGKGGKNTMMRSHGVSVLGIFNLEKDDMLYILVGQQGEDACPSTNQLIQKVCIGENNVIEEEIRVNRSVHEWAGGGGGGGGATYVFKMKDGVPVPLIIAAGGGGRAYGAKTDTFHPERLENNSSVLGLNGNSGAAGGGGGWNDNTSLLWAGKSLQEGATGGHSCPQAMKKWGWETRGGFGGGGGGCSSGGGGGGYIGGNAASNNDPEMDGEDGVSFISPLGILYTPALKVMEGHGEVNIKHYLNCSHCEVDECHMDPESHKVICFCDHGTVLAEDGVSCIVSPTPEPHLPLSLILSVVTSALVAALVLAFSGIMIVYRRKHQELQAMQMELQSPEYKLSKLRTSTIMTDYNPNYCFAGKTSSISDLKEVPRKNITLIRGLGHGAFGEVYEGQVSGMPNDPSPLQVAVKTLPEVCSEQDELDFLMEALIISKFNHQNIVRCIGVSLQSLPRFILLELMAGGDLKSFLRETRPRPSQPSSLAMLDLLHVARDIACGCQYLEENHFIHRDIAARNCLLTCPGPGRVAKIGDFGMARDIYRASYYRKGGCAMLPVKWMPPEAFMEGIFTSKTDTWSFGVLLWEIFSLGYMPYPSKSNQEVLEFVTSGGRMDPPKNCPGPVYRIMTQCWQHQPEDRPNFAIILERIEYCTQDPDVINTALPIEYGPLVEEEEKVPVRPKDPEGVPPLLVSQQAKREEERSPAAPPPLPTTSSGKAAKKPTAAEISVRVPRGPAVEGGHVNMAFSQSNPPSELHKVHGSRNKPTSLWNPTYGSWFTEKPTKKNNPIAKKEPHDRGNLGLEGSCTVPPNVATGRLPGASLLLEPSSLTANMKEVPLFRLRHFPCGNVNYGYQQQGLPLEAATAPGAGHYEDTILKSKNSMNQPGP
T1 sequence (P08581 956-1390 limits assumed): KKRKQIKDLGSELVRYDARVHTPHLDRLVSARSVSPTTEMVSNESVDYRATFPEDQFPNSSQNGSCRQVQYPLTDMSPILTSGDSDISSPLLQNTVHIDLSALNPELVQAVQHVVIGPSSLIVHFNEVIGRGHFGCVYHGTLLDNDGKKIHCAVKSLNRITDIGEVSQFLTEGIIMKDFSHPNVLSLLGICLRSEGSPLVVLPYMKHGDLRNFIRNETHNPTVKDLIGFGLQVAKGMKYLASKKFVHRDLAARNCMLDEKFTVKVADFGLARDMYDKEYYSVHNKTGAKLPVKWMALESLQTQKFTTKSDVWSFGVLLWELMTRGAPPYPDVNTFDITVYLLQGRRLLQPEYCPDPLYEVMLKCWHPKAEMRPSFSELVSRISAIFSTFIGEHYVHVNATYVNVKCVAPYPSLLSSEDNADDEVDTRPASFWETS

Compound: COCCN1CCc2ccc(Nc3ncc(Cl)c(Nc4ccccc4-c4ncccc4OC)n3)cc2CC1 [Example 990, 5-Chloro-N*2*-[3-(2-methoxy-ethyl)-2,3,4,5-tetrahydro-1H-benzo[d]azepin-7-yl]-N*4*-[2-(3-methoxy-pyridin-2-yl)-phenyl]-pyrimidine-2,4-diamine]
- IC50 [1, 3]: 100 to 1000 nM
- IC50 [2, 4]: < 100 nM

Compound: CCN1CCN(CC)c2cc(Nc3nc(Nc4cc5c(cc4OC)CCN(CC(=O)N(C)C)CC5)ncc3Cl)ccc2C1=O [Example 724, 2-{7-[5-Chloro-4-(1,4-diethyl-5-oxo-2,3,4,5-tetrahydro-1H-benzo[e][1,4]diazepin-8-ylamino)-pyrimidin-2-ylamino]-8-methoxy-1,2,3,4-tetrahydro-benzo[d]azepin-3-yl}-N,N-dimethyl-acetamide]
- IC50 [1, 3]: > 10000 nM
- IC50 [2, 4]: < 100 nM

Compound: COc1cc2c(cc1Nc1ncc(Cl)c(Nc3cc(C#N)ccc3OC)n1)CCN(CC(=O)N(C)C)CC2 [Example 1149, 2-{7-[5-Chloro-4-(5-cyano-2-methoxy-phenylamino)-pyrimidin-2-ylamino]-8-methoxy-1,2,4,5-tetrahydro-benzo[d]azepin-3-yl}-N,N-dimethyl-acetamide]
- IC50 [1, 7]: 1000 to 10000 nM
- IC50 [2, 8]: < 100 nM

Compound: CNC(=O)c1ccccc1Nc1nc(Nc2ccc3c(c2)COC[C@@H]2CCCN32)ncc1Cl [Example 12, 2-{5-Chloro-2-[(S)-(2,3,3a,4-tetrahydro-1H,6H-5-oxa-10b-aza-benzo[e]azulen-8-yl)amino]-pyrimidin-4-ylamino}-N-methyl-benzamide]
- IC50 [1, 9]: < 100 nM
- IC50 [2, 10]: < 100 nM

Compound: COCCN1CCc2ccc(Nc3ncc(Cl)c(Nc4ccccc4C(=O)NC(C)C)n3)cc2CC1 [Example 342, 2-{5-Chloro-2-[3-(2-methoxy-ethyl)-2,3,4,5-tetrahydro-1H-benzo[d]azepin-7-ylamino]-pyrimidin-4-ylamino}-N-isopropyl-benzamide]
- IC50 [1, 9]: 100 to 1000 nM
- IC50 [2, 10]: < 100 nM

Compound: CC1(C)CCC(=O)Nc2ccc(Nc3ncc(Cl)c(NC4C5C=CC(C5)C4C(N)=O)n3)cc21 (stereo not drawn) [Example 394, (2-exo,3-exo)-3-[5-Chloro-2-(5,5-dimethyl-2-oxo-2,3,4,5-tetrahydro-1H-benzo[b]azepin-7-ylamino)-pyrimidin-4-ylamino]-bicyclo[2.2.1]hept-5-ene-2-carboxylic acid amide]
- IC50 [1, 9]: 100 to 1000 nM
- IC50 [2, 10]: < 100 nM

Compound: CN1C(=O)CCCc2ccc(Nc3ncc(Cl)c(NC4C5C=CC(C5)C4C(N)=O)n3)cc21 (stereo not drawn) [Example 110, (2-exo,3-exo)-3-[5-Chloro-2-(1-methyl-2-oxo-2,3,4,5-tetrahydro-1H-benzo[b]azepin-8-ylamino)pyrimidin-4-ylamino]-bicyclo[2.2.1]hept-5-ene-2-carboxylic acid amide]
- IC50 [1, 9]: 100 to 1000 nM
- IC50 [2, 10]: < 100 nM

Compound: COCCN1CCc2ccc(Nc3ncc(Cl)c(Nc4ccccc4C(=O)OC)n3)cc2CC1 [Example 1408, 2-{5-Chloro-2-[3-(2-methoxy-ethyl)-2,3,4,5-tetrahydro-1H-benzo[d]azepin-7-ylamino]-pyrimidin-4-ylamino}-benzoic acid methyl ester]
- IC50 [1, 7]: 100 to 1000 nM
- IC50 [2, 8]: < 100 nM

Compound: CNC(=O)c1cccc(F)c1Nc1nc(Nc2ccc3c(c2)-n2cccc2C=CO3)ncc1Cl [Example 1269, 2-[5-Chloro-2-(6-oxa-10b-aza-benz[e]azulen-9-ylamino)-pyrimidin-4-ylamino]-3-fluoro-N-methyl-benzamide]
- IC50 [1, 7]: < 100 nM
- IC50 [2, 8]: 100 to 1000 nM

Compound: CCNC(=O)c1ccccc1Nc1nc(Nc2c(OC)ccc3c2CC(=O)N(CC)CC3)ncc1Cl [Example 1134, 2-[5-Chloro-2-(3-ethyl-7-methoxy-4-oxo-2,3,4,5-tetrahydro-1H-benzo[d]azepin-6-ylamino)-pyrimidin-4-ylamino]-N-ethyl-benzamide]
- IC50 [1, 7]: > 10000 nM
- IC50 [2, 8]: > 10000 nM

Compound: COCCN1CCc2ccc(Nc3ncc(Cl)c(Nc4ccc(N(C)C)cc4S(=O)(=O)N(C)C)n3)cc2CC1 [Example 852, 2-{5-Chloro-2-[3-(2-methoxy-ethyl)-2,3,4,5-tetrahydro-1H-benzo[d]azepin-7-ylamino]-pyrimidin-4-ylamino}-5-dimethylamino-N,N-dimethyl-benzenesulfonamide]
- IC50 [1, 3]: 1000 to 10000 nM
- IC50 [2, 4]: < 100 nM

Compound: COCCN1CCc2ccc(Nc3ncc(C(F)(F)F)c(N[C@H]4[C@@H](C(N)=O)[C@@H]5C=C[C@H]4C5)n3)cc2CC1 [Example 934, (1S,2S,3R,4R)-3-{2-[3-(2-Methoxy-ethyl)-2,3,4,5-tetrahydro-1H-3-benzazepin-7-ylamino]-5-trifluoromethyl-pyrimidin-4-ylamino}-bicyclo[2.2.1]hept-5-ene-2-carboxylic acid amide]
- IC50 [1, 3]: < 100 nM
- IC50 [2, 4]: < 100 nM

Compound: CS(=O)(=O)N[C@@H]1CCCC[C@H]1Nc1nc(Nc2cccc3c2OCCCC3)ncc1Cl [Example 863, N-{(1R,2R)-2-[5-Chloro-2-(2,3,4,5-tetrahydro-benzo[b]oxepin-9-ylamino)pyrimidin-4-ylamino]-cyclohexyl}-methanesulfonamide]
- IC50 [1, 3]: > 10000 nM
- IC50 [2, 4]: < 100 nM

Compound: CCN1CCN(CC)c2cc(Nc3ncc(Cl)c(Nc4ccccc4-n4cccn4)n3)ccc2C1 [Example 725, 5-Chloro-N(2)-(1,4-diethyl-2,3,4,5-tetrahydro-1H-benzo[e][1,4]diazepin-8-yl)-N(4)-(2-pyrazol-1-yl-phenyl)-pyrimidine-2,4-diamine]
- IC50 [1, 3]: 100 to 1000 nM
- IC50 [2, 4]: < 100 nM

Compound: COc1cc2c(cc1Nc1ncc(Cl)c(Nc3ccc(N4CCN(C)CC4)cc3C)n1)CCN(CC(=O)N(C)C)CC2 [Example 802, 2-(7-{5-Chloro-4-[2-methyl-4-(4-methyl-piperazin-1-yl)-phenylamino]-pyrimidin-2-ylamino}-8-methoxy-1,2,4,5-tetrahydro-benzo[d]azepin-3-yl)-N,N-dimethyl-acetamide]
- IC50 [1, 3]: > 10000 nM
- IC50 [2, 4]: < 100 nM

Compound: 5-Chloro-N*2*-[1-methoxy-7-(2,2,2-trifluoro-ethylamino)-6,7,8,9-tetrahydro-5H-benzocyclohepten-2-yl]-N*4*-methyl-N*4*-[2-(propane-2-sulfonyl)-phenyl]-pyrimidine-2,4-diamine [Example 680]
- IC50 [1, 3]: > 10000 nM
- IC50 [2, 4]: < 100 nM

More lines, now with the values ahead:

- IC50 [1, 5]: > 10000 nM
- IC50 [2, 6]: 100 to 1000 nM
Compound: COCCN1CCCC(C)(C)c2ccc(Nc3ncc(Cl)c(Nc4ccc(N5CCOCC5)cc4OC)n3)cc21 [Example 1601, 5-Chloro-N*2*-[1-(2-methoxy-ethyl)-5,5-dimethyl-2,3,4,5-tetrahydro-1H-benzo[b]azepin-8-yl]-N*4*-(2-methoxy-4-morpholin-4-yl-phenyl)-pyrimidine-2,4-diamine]

- IC50 [1, 5]: < 100 nM
- IC50 [2, 6]: 100 to 1000 nM
Compound: CCN1C(=O)C(NC(=O)CN(C)C)CCc2ccc(Nc3ncc(Cl)c(Nc4c(F)cccc4C(=O)NC)n3)cc21 (stereo not drawn) [Example 1496, 2-{5-Chloro-2-[3-(2-dimethylamino-acetylamino)-1-ethyl-2-oxo-2,3,4,5-tetrahydro-1H-benzo[b]azepin-8-ylamino]-pyrimidin-4-ylamino}-3-fluoro-N-methyl-benzamide]

- IC50 [1, 5]: 100 to 1000 nM
- IC50 [2, 6]: 100 to 1000 nM
Compound: CNC(=O)c1c(C)cccc1Nc1nc(Nc2ccc3c(c2)CCOC(=O)N3C)ncc1Cl [Example 1755, 2-[5-Chloro-2-(5-methyl-6-oxo-5,6,8,9-tetrahydro-7-oxa-5-aza-benzocyclohepten-2-ylamino)-pyrimidin-4-ylamino]-6,N-dimethyl-benzamide]

- IC50 [1, 7]: < 100 nM
- IC50 [2, 8]: 100 to 1000 nM
Compound: CNC(=O)c1cc(-c2cnn(C)c2)cc(F)c1Nc1nc(Nc2ccc3c(c2)N(C(C)=O)CCCO3)ncc1Cl [Example 1424, 2-[2-(9-Acetyl-6,7,8,9-tetrahydro-5-oxa-9-aza-benzocyclohepten-2-ylamino)-5-chloro-pyrimidin-4-ylamino]-3-fluoro-N-methyl-5-(1-methyl-1H-pyrazol-4-yl)-benzamide]

- IC50 [1, 5]: 100 to 1000 nM
- IC50 [2, 6]: < 100 nM
Compound: CNC(=O)c1cc(C)cc(C)c1Nc1nc(Nc2ccc3c(c2)CCNC(=O)C3)ncc1Cl [Example 1814, 2-[5-Chloro-2-(2-oxo-2,3,4,5-tetrahydro-1H-benzo[d]azepin-7-ylamino)-pyrimidin-4-ylamino]-3,5,N-trimethyl-benzamide]

- IC50 [1, 5]: < 100 nM
- IC50 [2, 6]: 100 to 1000 nM
Compound: CNC(=O)c1cccc(Cl)c1Nc1nc(Nc2ccc3c(c2)CNC(=O)CC3)ncc1Cl [Example 1796, 3-Chloro-2-[5-chloro-2-(3-oxo-2,3,4,5-tetrahydro-1H-benzo[c]azepin-8-ylamino)-pyrimidin-4-ylamino]-N-methylbenzamide]

- IC50 [1, 5]: 100 to 1000 nM
- IC50 [2, 6]: 1000 to 10000 nM
Compound: Cc1nnc(-c2cccc(F)c2Nc2nc(Nc3ccc4c(c3)CCOC(=O)N4C)ncc2Cl)o1 [Example 1787, 2-{5-Chloro-4-[2-fluoro-6-(5-methyl-[1,3,4]oxadiazol-2-yl)-phenylamino]-pyrimidin-2-ylamino}-5-methyl-8,9-dihydro-5H-7-oxa-5-aza-benzocyclohepten-6-one]

- IC50 [1, 5]: < 100 nM
- IC50 [2, 6]: < 100 nM
Compound: CNC(=O)c1cccc(F)c1Nc1nc(Nc2ccc3c(c2)CCOC(=O)N3C)ncc1Cl [Example 1742, 3-Fluoro-2-[5-chloro-2-(5-methyl-6-oxo-5,6,8,9-tetrahydro-7-oxa-5-aza-benzocyclohepten-2-ylamino)-pyrimidin-4-ylamino]-N-methyl-benzamide]
